Data reported in PMC9570490, “Novel Morpholine-Bearing Quinoline Derivatives as Potential Cholinesterase Inhibitors: The Influence of Amine, Carbon Linkers and Phenylamino Groups” (International Journal of Molecular Sciences, 2022).
Values after ≈ are worked out from the molar mass of the structure shown.

How the values were obtained:
[1] = Water solubility, shake-flask method; assay type: physicochemical; conditions: thermodynamic from solid, double distilled water, 37 °C
Description: Water solubility is regarded as another vital descriptor for BBB penetration, where high solubility is considered as a prerequisite for a rapid absorption and higher bioavailability of a drug candidate. […] With this experiment, we have obtained their data as 0.62, 3.03, 12.9, and […] for the selected compounds 11a, 11g, 12a, and 12c, respectively.
Solubility was determined by using the shake-flask method.The desired amount of the compound was placed in a test tube, to which an appropriate amount of double distilled water was introduced. The suspension was agitated on a plate shaker at 37 °C for 24 h. After centrifuging, HPLC analyses of supernatant was performed. The solubility of the compound was obtained from its HPLC result.

[2] = Lipophilicity (LogP) determination, shake-flask octanol/water; assay type: physicochemical; conditions: HPLC, read-out: LogP (experimental)
Excerpt: For anti-Alzheimer drug candidates, the ability to cross the blood–brain barrier (BBB) and to enter the central nervous system (CNS) is crucial to achieve their pharmacological target binding and activity, and CNS drugs require more strict rules for a successful penetration. […] Besides, for molecules to penetrate the BBB, a topological polar surface area (TPSA) value less than 90 Å ^2 is usually needed and molecules with a TPSA of greater than 120 Å ^2 tend to be poor in permeating cell membranes. Therefore, the molar mass (MW), LogP, and TPSA of all target compounds were simulated by ChemDraw 19.0 (Table 1). […] Because LogP was thought as an important physicochemical parameter to evaluate the ability to cross BBB, the LogP of some compounds was further assessed in experiments.
The lipophilicities of test compounds were determined using the traditional shake-flask method. A solid test compound (2 mg) was placed into a 10 mL pear-shaped flask, and measured volumes of octanol and water were added for logP determination. The resulting biphasic mixture was stirred for 24 h and then left without stirring for 12 h to allow phase separation. The test compound in each phase was sampled and quantitated using HPLC. The areas under the peaks were divided and the log taken.

[3] = molecular target: T1, BChE (EC 3.1.1.8, from horse serum) (Equus caballus, UniProt P81908); test: biochemical; conditions: means ± SD, at least three independents
T1 construct: BChE (EC 3.1.1.8, from horse serum); purchased Sigma-Aldrich; host or cells: horse serum
Description: (§1) AChE and BChE inhibitory activities of compounds were determined by using a modified Ellman’s method. AChE (EC 3.1.1.7, from electric eel), BChE (EC 3.1.1.8, from horse serum), 5,5′-dithiobis(2nitrobenzoic acid) (DTNB), acetylthiocholine iodide (ATCI) and butyrylthiocholine iodide (BTCI) were purchased from Sigma-Aldrich. The reaction mixture contained 140 μL of 100 mM sodium phosphate buffer (pH 8.0), the enzyme solution (either 0.05 U/mL of AChE, 20 μL; or 0.05 U/mL of BChE, 20 μL), and test compound (20 μL). Assayed solutions of test compounds were pre-incubated with corresponding ChE at 25 °C for 15 min. The reaction was initiated by the addition of 10 μL of 10 mM DTNB and 10 μL of 7.5 mM substrate (ATCI or BTCI). The activity was determined by measuring the increase in absorbance at 412 nm at 37 °C in 10 min intervals using a microplate reader. The percentage of inhibition was calculated from the measured data as follows: (Ac − Ai)/Ac × 100%, where Ai and Ac represent the change in the absorbance in the presence of inhibitor and without inhibitor, respectively.

[4] = molecular target: T2, AChE (EC 3.1.1.7, from electric eel) (Electrophorus electricus, UniProt O42275); test: biochemical; conditions: for IC50: means ± SD, at least three independents
T2 construct: purchased Sigma-Aldrich
Description: as §1

[5] = ABTS radical-scavenging assay
Description: ABTS radical-scavenging activity was measured by using the modified method. The test compound was dissolved in ethanol as 1.0 mg/mL, 0.5 mg/mL, 0.25 mg/mL, 0.125 mg/mL, 0.0625 mg/mL, and 0.03125 mg/mL. Similarly, the ethanol solution of Trolox with the same concentration gradient was prepared as a positive control. ABTS solution at a concentration of 7 mM and potassium persulfate solution at a concentration of 2.45 mM with distilled water were also prepared. The ABTS solution and the potassium persulfate solution were mixed in equal amounts, and then placed in the dark and protected from light for 12 h. The ABTS standard solution was diluted with ethanol until the absorbance value at 734 nm was in the range of 0.7 ± 0.05. Then, 3900 µL of ABTS cation solution was mixed with 100 µL of test compound at different concentrations. The samples were kept in the dark for 10 min at room temperature and absorption was measured at 734 nm on a spectrophotometer. The percentage of ABTS radical-scavenging activity was calculated as follows: (Ac−Ai)/Ac × 100%, where Ai and Ac represented the change in absorbance in the presence and absence of the test sample, respectively.

T2 sequence (O42275 24-633): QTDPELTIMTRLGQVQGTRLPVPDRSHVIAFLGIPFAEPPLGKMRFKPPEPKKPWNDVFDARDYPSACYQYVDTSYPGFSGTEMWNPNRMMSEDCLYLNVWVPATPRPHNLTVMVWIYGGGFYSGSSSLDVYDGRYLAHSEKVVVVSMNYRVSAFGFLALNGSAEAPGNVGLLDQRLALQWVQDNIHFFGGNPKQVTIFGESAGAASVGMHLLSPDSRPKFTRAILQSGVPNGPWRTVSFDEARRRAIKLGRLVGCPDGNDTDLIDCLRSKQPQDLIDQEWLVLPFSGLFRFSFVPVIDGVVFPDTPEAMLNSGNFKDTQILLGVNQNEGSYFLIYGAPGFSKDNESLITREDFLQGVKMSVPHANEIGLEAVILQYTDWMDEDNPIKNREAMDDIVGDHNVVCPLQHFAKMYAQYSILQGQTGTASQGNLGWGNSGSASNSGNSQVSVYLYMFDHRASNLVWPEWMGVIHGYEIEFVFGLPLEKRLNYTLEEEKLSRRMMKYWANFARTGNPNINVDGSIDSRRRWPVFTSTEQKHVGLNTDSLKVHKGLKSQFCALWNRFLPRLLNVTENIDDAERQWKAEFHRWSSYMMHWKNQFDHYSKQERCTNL
T1 sequence (P81908 whole entry): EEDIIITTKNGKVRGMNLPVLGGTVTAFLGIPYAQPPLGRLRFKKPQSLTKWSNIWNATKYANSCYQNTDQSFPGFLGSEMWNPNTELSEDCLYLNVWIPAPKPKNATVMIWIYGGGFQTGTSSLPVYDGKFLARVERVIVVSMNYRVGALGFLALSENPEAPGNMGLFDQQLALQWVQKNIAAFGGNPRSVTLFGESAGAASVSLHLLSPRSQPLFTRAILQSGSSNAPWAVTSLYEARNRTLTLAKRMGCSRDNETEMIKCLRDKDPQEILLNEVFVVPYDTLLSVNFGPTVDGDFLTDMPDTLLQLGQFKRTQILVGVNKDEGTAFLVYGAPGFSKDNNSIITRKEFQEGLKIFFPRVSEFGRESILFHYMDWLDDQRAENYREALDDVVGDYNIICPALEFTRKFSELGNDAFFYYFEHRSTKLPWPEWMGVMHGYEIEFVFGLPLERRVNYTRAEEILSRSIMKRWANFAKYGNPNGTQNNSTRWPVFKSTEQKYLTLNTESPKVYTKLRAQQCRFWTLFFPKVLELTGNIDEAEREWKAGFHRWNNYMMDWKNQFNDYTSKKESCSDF

Row | SMILES | solubility at 24 h [1] [mg/mL] | logP at 24 h [2] | IC50 [3] [µM] | SI for AChE = IC50 BChE/IC50 AChE [4] | IC50 [4] [µM] | ABTS radical-scavenging IC50 [5] [µg/mL] | IC50 [5] [µM]
1 | COc1cc2c(Nc3ccccc3)c(N)cnc2cc1OCCCN1CCOCC1 [12a, 6-Methoxy-7-(3-Morpholinopropoxy)-3-Amino-4-Phenylamino-Quinoline] | 12.9 (≈ 31.6 mM) | 2.07 | 30.5 ± 2.48 | 3.34 | 9.13 ± 0.42 | – | –
2 | COc1cc2c(Nc3ccc(O)cc3)c([N+](=O)[O-])cnc2cc1OCCN1CCOCC1 [11k, 6-Methoxy-7-(2-Morpholinoethoxy)-3-Nitro-4-(4-Hydroxylphenylamino)-Quinoline] | – | – | > 150 | >8.11 | 18.5 ± 1.74 | 5.75 ± 1.37 | –
3 | COc1cc2c(Nc3ccccc3Cl)c(N)cnc2cc1OCCCN1CCOCC1 [12b, 6-Methoxy-7-(3-Morpholinopropoxy)-3-Amino-4-(2-Chlorophenylamino)-Quinoline] | – | – | 130 ± 3.76 | 3.01 | 43.3 ± 0.68 | – | –
4 | COc1cc2c(Nc3ccc(Cl)cc3)c([N+](=O)[O-])cnc2cc1OCCCCN1CCOCC1 [11p, 6-Methoxy-7-(4-Morpholinobutoxy)-3-Nitro-4-(4-Chlorophenylamino)-Quinoline] | – | – | 98.1 ± 0.02 | 1.08 | 90.46 ± 0.06 | – | –
5 | COc1cc2c(Nc3ccccc3Cl)c([N+](=O)[O-])cnc2cc1OCCCN1CCOCC1 [11b, 6-Methoxy-7-(3-Morpholinopropoxy)-3-Nitro-4-(2-Chlorophenylamino)-Quinoline] | – | – | 130 ± 4.62 | 10.42 | 12.5 ± 0.21 | – | –
6 | Cc1c(C)c2c(c(C)c1O)CCC(C)(C(=O)O)O2 (centres unmarked) [Trolox, reference compound] | – | – | – | – | – | 2.76 ± 0.19 | 11 ± 0.76
7 | COc1cc2c(Nc3ccc(Cl)cc3)c([N+](=O)[O-])cnc2cc1OCCCN1CCOCC1 [11d, 6-Methoxy-7-(3-Morpholinopropoxy)-3-Nitro-4-(4-Chlorophenylamino)-Quinoline] | – | – | 82.4 ± 3.06 | 0.92 | 88.7 ± 1.1 | – | –
8 | COc1cc2c(Nc3cccc(Cl)c3)c([N+](=O)[O-])cnc2cc1OCCCN1CCOCC1 [11c, 6-Methoxy-7-(3-Morpholinopropoxy)-3-Nitro-4-(3-Chlorophenylamino)-Quinoline] | – | – | 114 ± 5.36 | 3.55 | 32.4 ± 0.16 | – | –
9 | COc1cc2c(Nc3cccc(Cl)c3)c(N)cnc2cc1OCCCN1CCOCC1 [12c, 6-Methoxy-7-(3-Morpholinopropoxy)-3-Amino-4-(3-Chlorophenylamino)-Quinoline] | 10.5 (≈ 23.7 mM) | 2.35 | 27.8 ± 2.16 | 1.26 | 22.1 ± 0.33 | – | –
10 | COc1ccc(Nc2c([N+](=O)[O-])cnc3cc(OCCCCN4CCOCC4)c(OC)cc23)cc1 [11r, 6-Methoxy-7-(4-Morpholinobutoxy)-3-Nitro-4-(4-Methoxyphenylamino)-Quinoline] | – | – | 106 ± 1.16 | 5.65 | 18.9 ± 0.51 | 11.25 ± 1.27 | 23.3 ± 2.63
11 | COc1ccc(Nc2c([N+](=O)[O-])cnc3cc(OCCCN4CCOCC4)c(OC)cc23)cc1 [11f, 6-Methoxy-7-(3-Morpholinopropoxy)-3-Nitro-4-(4-Methoxyphenylamino)-Quinoline] | – | – | 96.6 ± 4.75 | 7.54 | 12.8 ± 0.55 | 4.25 ± 0.63 | 9.07 ± 1.34
12 | COc1cc2c(Nc3ccccc3)c([N+](=O)[O-])cnc2cc1OCCCCN1CCOCC1 [11m, 6-Methoxy-7-(4-Morpholinobutoxy)-3-Nitro-4-Phenylamino-Quinoline] | – | – | > 150 | >11.24 | 13.34 ± 0.07 | – | –
13 | COc1cc2c(Nc3ccc(Cl)cc3)c(N)cnc2cc1OCCCN1CCOCC1 [12d, 6-Methoxy-7-(3-Morpholinopropoxy)-3-Amino-4-(4-Chlorophenylamino)-Quinoline] | – | – | 145 ± 4.25 | 6.63 | 21.84 ± 0.2 | – | –
14 | COc1ccc(Nc2c([N+](=O)[O-])cnc3cc(OCCN4CCOCC4)c(OC)cc23)cc1 [11l, 6-Methoxy-7-(2-Morpholinoethoxy)-3-Nitro-4-(4-Methoxyphenyamino)-Quinoline] | – | – | 63.9 ± 2.87 | 7.03 | 9.08 ± 0.53 | 2.75 ± 0.53 | 6.05 ± 1.17
15 | COc1cc2c(Nc3ccccc3Cl)c([N+](=O)[O-])cnc2cc1OCCN1CCOCC1 [11h, 6-Methoxy-7-(2-Morpholinoethoxy)-3-Nitro-4-(2-Chlorophenylamino)-Quinoline] | – | – | 81.1 ± 4.03 | 12.55 | 6.46 ± 0.77 | – | –
16 | COc1cc2c(Nc3cccc(Cl)c3)c([N+](=O)[O-])cnc2cc1OCCCCN1CCOCC1 [11o, 6-Methoxy-7-(4-Morpholinobutoxy)-3-Nitro-4-(3-Chlorophenylamino)-Quinoline] | – | – | 116 ± 5.36 | <0.77 | > 150 | – | –
17 | COc1cc2c(Nc3ccccc3Cl)c([N+](=O)[O-])cnc2cc1OCCCCN1CCOCC1 [11n, 6-Methoxy-7-(4-Morpholinobutoxy)-3-Nitro-4-(2-Chlorophenylamino)-Quinoline] | – | – | > 150 | >1.75 | 85.57 ± 0.04 | – | –
18 | COc1cc2c(Nc3cccc(Cl)c3)c([N+](=O)[O-])cnc2cc1OCCN1CCOCC1 [11i, 6-Methoxy-7-(2-Morpholinoethoxy)-3-Nitro-4-(3-Chlorophenylamino)-Quinoline] | – | – | 111 ± 5.59 | 11.08 | 10 ± 0.52 | – | –
19 | COc1cc2c(Nc3ccc(O)cc3)c([N+](=O)[O-])cnc2cc1OCCCN1CCOCC1 [11e, 6-Methoxy-7-(3-Morpholinopropoxy)-3-Nitro-4-(4-Hydroxylphenylamino)-Quinoline] | – | – | > 150 | >4.35 | 34.47 ± 0.09 | 12.01 ± 1.49 | 26.4 ± 3.28
20 | COc1cc2c(Nc3ccc(Cl)cc3)c([N+](=O)[O-])cnc2cc1OCCN1CCOCC1 [11j, 6-Methoxy-7-(2-Morpholinoethoxy)-3-Nitro-4-(4-Chlorophenylamino)-Quinoline] | – | – | 76.8 ± 3.76 | 8.90 | 8.63 ± 0.4 | – | –
21 | COc1cc2c(Nc3ccc(O)cc3)c([N+](=O)[O-])cnc2cc1OCCCCN1CCOCC1 [11q, 6-Methoxy-7-(4-Morpholinobutoxy)-3-Nitro-4-(4-Hydroxyphenylamino)-Quinoline] | – | – | > 150 | >4.07 | 36.8 ± 0.45 | 26.12 ± 2.13 | 55.8 ± 4.55
